Publication PMC11945486, “TAS1R2/TAS1R3 Single-Nucleotide Polymorphisms Affect Sweet Taste Receptor Activation by Sweeteners: The SWEET Project” (Nutrients, 2025)

Target: T1, human TAS1R2-WT (subunit alone) (Homo sapiens, UniProt Q8TE23)
T1 construct: expressed in transfected cells; host or cells: HEK293T-Gα16gust44
T1 sequence (Q8TE23 20-839): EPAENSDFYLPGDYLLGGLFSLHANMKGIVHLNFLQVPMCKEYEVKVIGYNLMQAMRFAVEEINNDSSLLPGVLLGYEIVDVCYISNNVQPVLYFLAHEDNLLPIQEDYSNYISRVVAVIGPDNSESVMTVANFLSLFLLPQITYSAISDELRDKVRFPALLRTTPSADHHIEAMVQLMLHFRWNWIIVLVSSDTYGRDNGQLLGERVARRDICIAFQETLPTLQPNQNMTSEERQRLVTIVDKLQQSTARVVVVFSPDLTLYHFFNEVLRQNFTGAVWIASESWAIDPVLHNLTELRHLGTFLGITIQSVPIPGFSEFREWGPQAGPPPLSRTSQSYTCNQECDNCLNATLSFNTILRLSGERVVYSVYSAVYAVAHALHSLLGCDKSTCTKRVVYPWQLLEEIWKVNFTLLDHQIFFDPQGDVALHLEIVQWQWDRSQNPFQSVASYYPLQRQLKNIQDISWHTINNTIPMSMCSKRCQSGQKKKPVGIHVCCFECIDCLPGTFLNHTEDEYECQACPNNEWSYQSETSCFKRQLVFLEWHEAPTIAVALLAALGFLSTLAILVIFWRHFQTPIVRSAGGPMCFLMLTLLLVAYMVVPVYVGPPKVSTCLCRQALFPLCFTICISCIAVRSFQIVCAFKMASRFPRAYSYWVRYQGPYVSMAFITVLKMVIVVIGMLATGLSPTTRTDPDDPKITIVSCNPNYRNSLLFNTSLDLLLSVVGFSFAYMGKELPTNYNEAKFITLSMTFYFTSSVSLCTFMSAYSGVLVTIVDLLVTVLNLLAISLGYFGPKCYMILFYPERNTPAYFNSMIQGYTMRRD
Test: Calcium mobilisation assay, TAS1R2-WT subunit alone
Format: cell-based
Source text: The coding sequences for TAS1R2 and TAS1R3 were commercially synthesised, and the human codon was optimised for expression in human cells. The coding sequences of human TAS1R2 and TAS1R3 were subcloned and inserted into the mammalian expression vectors pcDNA6/myc-HisA and pcDNA4/myc-HisA (Invitrogen; Thermo Fisher Scientific; Illkirch, France) between the EcoRI and NotI restriction sites, generating the plasmids pcDNA6-TAS1R2 and pcDNA4-TAS1R3, respectively. To increase protein expression in mammalian cells, an upstream start codon was used, which was a sequence called MAX, corresponding to the QBI SP163 element also described in pcDNA4-HisMax (Invitrogen; Thermo Fisher Scientific; Illkirch, France). To measure the expression level of the receptor by immunohistochemistry, we used the FLAG sequence ([…]) in the C-terminal position, which encodes the FLAG tag epitope. […]
The HEK293T cells were kindly provided by Jay P. Slack (Givaudan Flavors Corporation; Cincinnati, OH, USA). […] The fluorescence intensity was measured for 90 s (excitation 488 nm, emission 510 nm) in an automated fluorometric FlexStation®3 Multi-Mode microplate reader (Molecular Devices; San Jose, CA, USA). […] The Ca^2+ changes were expressed as fractional changes in fluorescent light intensity: ΔF/F = (F − F0)/F0, where F was the fluorescent light intensity at each point, and F0 was the value of emitted fluorescent light prior to stimulus application. To calculate dose–response relationships, the changes in fluorescence upon stimulus application were averaged, mock-subtracted and baseline-corrected. […] The half-maximal effective concentrations (EC50 values) and maximal signal amplitudes were calculated using SigmaPlot software (version 15.0) (Systat Software; San Jose, CA, USA).
For in vitro calcium mobilisation assay performed on hTAS1R2-SNPs, hTAS1R3-SNPs and mTAS1R3-I60T, 6 to 7 concentrations were tested for each sweet compound, plus buffer alone. All concentration–receptor combinations were measured in duplicate, and each experiment was repeated at least 4 times (8 wells/concentration). […]

- EC50: 90 ± 17 µM
- R1 = Variant EC50/WT EC50: 1.0
- Max ΔF/F0 (maximal signal amplitude): 1.06 ± 0.06
SMILES: C=C(C)[C@@H]1CC=C(/C=N/O)CC1 [Perillartine, perillartine]
